{"source": "patent US20210161837A1", "about": "“METHODS FOR TREATING CANCER WITH RORGAMMA INHIBITORS” (The Regents of the University of California, priority 2016, published 2021)", "key": {"[1]": {"system": "MCF-7", "test": "Cell viability (CellTiter-GLO), 4 days, ER-positive cells", "assay_type": "cell-based", "settings": "Homo sapiens, MCF7, 96 h; ER-positive MCF-7, 4 days", "protocol": "(§1) For cell viability, cells were seeded in 96-well plates at 1500-2500 cells per well (optimum density for growth, depending on the specific cell line) in a total volume of 100 μl media. Serially diluted compounds in 100 μl of media were added to the cells 12 hours later. After 4 days of incubation, Cell-Titer GLO reagents (Promega) were added and luminescence was measured on GLOMAX microplate luminometer (Promega), according to the manufacturer's instructions. All experimental points were set up as sextuplicate as biological replication and the entire experiments were repeated three times. The data are presented as percentage of viable cells with vehicle treated cells set as 100. The estimated in vitro IC50 values were calculated using GraphPad Prism 6 software."}, "[2]": {"system": "T47D", "test": "Cell viability (CellTiter-GLO), 4 days, ER-positive cells", "assay_type": "cell-based", "settings": "Homo sapiens, 96 h", "protocol": "as §1"}, "[3]": {"system": "22Rv1 xenografts", "test": "22Rv1 xenograft tumor growth", "assay_type": "in vivo, mouse", "settings": "5 mg/kg, i.p., 5 times a week, 21-24 days"}, "[4]": {"system": "C4-2B cells", "test": "Cell survival: colony formation and apoptosis (caspase-3/7, TUNEL)", "assay_type": "cell-based, human", "protocol": "(§2) Data shown are mean percentage of apoptotic cells±s.d. […] Data shown are mean±s.d. Significance was calculated using Student's t-test. *p<0.05, **p<0.01.\n(§3) (a&b) C4-2B and 22Rv1 cell proliferation after the RORγ antagonist treatment. Cells were seeded in 6-well plates and counted after cells were treated with indicated concentrations of RORγ antagonists for 0, 2, 4 and 6 days by Coulter counter. […] (e) representative images of TUNEL positive cells treated with vehicle or the antagonist (5 μM) in 22Rv1 cells are shown. […] Three days later, cells were harvested for immunoblotting with indicated antibodies.\n(§4) LNCaP, C4-2B, 22Rv, PC-3, and PC346C prostate cancer cells were cultured in RPMI1640, VCaP, HEK293T and human fibroblast IMR90 cells were in DMEM, LAPC-4 was in Iscove's MEM (all from Corning), and RWPE-1 and PZ-HPV-7 were in Keratinocyte Serum Free Medium (K-SFM) (Invitrogen) with the supplements. All the culture media except for RWPE-1 and PZ-HPV-7 were supplemented with 10% FBS (Hyclone) except indicated otherwise. For experiments, C4-2B cells were cultured in RPMI supplemented with 9% cds-FBS plus 1% regular FBS (to mimic the CRPC condition) unless indicated otherwise and 22Rv1 cells were cultured in RPMI supplemented with 10% cds-FBS. Cells were grown at 37° C. in 5% CO2 incubators. LNCaP, VCaP, 22Rv1, PC-3, 293T, IMR90, PZ-HPV-7 and RWPE-1 were from ATCC. […]"}, "[5]": {"system": "22Rv1 cells", "test": "Cell survival: colony formation and apoptosis (caspase-3/7, TUNEL)", "assay_type": "cell-based, human", "protocol": "as §2, §3, §4"}, "[6]": {"system": "TNBC cells including MDA-MB468, MDA-MB231, BT20, SUM149 and HCC1937", "test": "Cell viability (CellTiter-GLO), 4 days, TNBC cells", "assay_type": "cell-based", "settings": "Homo sapiens, 96 h", "protocol": "as §1"}, "[7]": {"system": "AR and AR-V7 expression", "test": "Immunoblotting and qRT-PCR of AR and AR-V7 expression in C4-2B and VCaP cells", "assay_type": "cell-based, human", "protocol": "Data shown are mean±s.d. Significance was calculated using Student's t-test. *p<0.05, **p<0.01.\n(§5) Total RNA was isolated from cells in 6-well or 10-cm plates or from xenograft tumors, and the cDNA was prepared, amplified and measured in the presence of SYBR as described in Yang, P., et al., Molecular and cellular biology 32, 3121-3131 (2012). Briefly, the fluorescent values were collected and a melting curve analysis was performed. Fold difference was calculated as described previously Yang, P., et al. (see, id). The experiments were performed at least three times with data presented as mean values±s.d. Cell lysates were analyzed by immunoblotting with antibodies specifically recognizing RORγ, AR, AR-V7 and the indicated proteins."}, "[8]": {"system": "endogenous AR expression in RWPE1 and PZ-HPV7 cells", "test": "Immunoblotting of AR expression in non-malignant prostate epithelial cells", "assay_type": "cell-based, human", "protocol": "Immunoblotting analysis of RORγ and AR expression in non-malignant, human prostate epithelial RWPE1 and PZ-HPV7 cells within indicated treatments is shown.\nas §5"}, "[9]": {"system": "AR expression", "test": "Immunoblotting of AR expression in 22Rv1, LAPC4 and PC346C cells", "assay_type": "cell-based, human", "settings": "22Rv1, LAPC4, PC346C cells, 72 hours", "protocol": "as §5"}, "[10]": {"molecular_target": "T1, RORγ (Homo sapiens, UniProt P51449)", "T1 construct": "reporter gene assay in 293T cells with Gal4-RORγ LBD expression vectors; expressed in transfected cells; host or cells: 293T cells", "T1 sequence (P51449 269-508 limits assumed)": "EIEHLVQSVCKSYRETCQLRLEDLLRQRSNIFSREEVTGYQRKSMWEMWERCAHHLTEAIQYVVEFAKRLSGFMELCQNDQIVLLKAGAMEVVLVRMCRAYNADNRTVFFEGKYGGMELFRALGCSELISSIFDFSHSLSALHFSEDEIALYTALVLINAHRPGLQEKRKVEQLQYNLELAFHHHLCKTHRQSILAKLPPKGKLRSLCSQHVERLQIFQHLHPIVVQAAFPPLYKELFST", "test": "RORγ transcriptional activity, reporter gene assay in 293T cells with Gal4-RORγ LBD expression vectors", "assay_type": "cell-based", "settings": "read-out: EC50, inhibition of RORγ constitutive activity", "protocol": "The 2-([1,1′-biphenyl]-4-yl)-1,1,1,3,3,3-hexafluoropropan-2-ol group of SR2211 was kept, while the amide group of the GSK agonist was chosen as linker. FIG. 2B illustrates RORγ transcriptional activity measured by reporter gene assay in 293T cells with Gal4-RORγ LBD expression vectors. EC50 values are reported as means±s.d. for ≥8 separate titrations from 10 μM. In vitro binding to the ligand binding domain (LBD) was measured by AlphaScreen and by thermal shift assay (TSA).\nFor example, the phenyl group in the middle likely forms a π-π interaction with the side chain of Phe378 of the LBD, while the amide group can form a direct hydrogen bond with Phe377. The nitro group and hydroxyl group at the two ends may form hydrogen bonds with Glu379 and His479, respectively."}, "[11]": {"system": "AR-positive PCa cell models including 22Rv1, VCaP, LNCaP, LAPC4 and PC346C", "test": "Growth inhibition in other AR-positive PCa cell models", "assay_type": "cell-based, human", "protocol": "as §3\nas §4, with “ATCC. C4-2B was from UroCor Inc. (Oklahoma City, Okla.).” for “ATCC.”"}, "[12]": {"system": "gastric cancer KATO III cells", "test": "Cell viability (Cell-Titer GLO), 4 days, gastric cancer cells", "assay_type": "cell-based, human", "protocol": "Experiments were independently performed three times.\nas §1, with “100.” for “100. The estimated in vitro IC50 values were calculated using GraphPad Prism 6 software.”"}}, "data": [{"smiles": "O=C(Cc1ccccc1[N+](=O)[O-])Nc1ccc(-c2ccc(C(O)(C(F)(F)F)C(F)(F)F)cc2F)cc1", "note": "[XY018, N-(2′-fluoro-4′-(1,1,1,3,3,3-hexafluoro-2-hydroxypropan-2-yl)-[1,1′-biphenyl]-4-yl)-2-(2-nitrophenyl)acetamide]", "values": [{"measurement": "IC50", "setting": "[1]", "result": "~9", "unit": "µM"}, {"measurement": "IC50", "setting": "[2]", "result": "~9", "unit": "µM"}, {"measurement": "tumor growth inhibition", "setting": "[3]", "result": "strong tumor growth inhibition"}, {"measurement": "inhibition of cell survival (colony formation, apoptosis)", "setting": "[4]", "result": "pronounced inhibition of cell survival"}, {"measurement": "inhibition of cell survival (colony formation, apoptosis)", "setting": "[5]", "result": "pronounced inhibition of cell survival"}, {"measurement": "IC50", "setting": "[6]", "result": "0.5 to 3", "unit": "µM"}, {"measurement": "AR and AR-V7 expression", "setting": "[7]", "result": "inhibited by XY018 in dose-dependent manner"}, {"measurement": "effect on endogenous AR expression in non-malignant cells", "setting": "[8]", "result": "did not have any significant effect"}, {"measurement": "AR expression", "setting": "[9]", "result": "potent does dependent XY018 inhibition of AR expression"}, {"measurement": "EC50", "setting": "[10]", "result": 0.19, "unit": "µM"}, {"measurement": "growth inhibition", "setting": "[11]", "result": "strong growth inhibition"}, {"measurement": "inhibition of growth and survival", "setting": "[12]", "result": "strongly inhibited the growth and survival"}]}]}
